Measured values reported in patent US20170360805A1, “MOTOR-ASSOCIATED NEURODEGENERATIVE DISEASE AND METHODS OF TREATMENT” (priority 2016, published 2017).

Legend:
[1] = test system: NSC-34 cells; experiment: Glutamate excitotoxicity model, MTT cell viability, NSC-34 cells; assay type: cell-based, mouse; settings: 24 hours, 0.01-10 μM, FIG. 7A
Experimental: (§1) FIG. 7A-FIG. 7B illustrate the effects of 15d-PGJ2 at four different concentrations (0.01, 0.1, 1, and 10 μM) on glutamate induced neurotoxicity in NSC-34 cells (left-FIG. 7A) and primary rat cortical neurons (right-FIG. 7B). Cell viability was determined by the MTT assay. Data are shown as mean+SEM (n=6 or 12) as percentage of vehicle control (VC). Statistical significance is indicated by *<0.05 and **<0.01 as determined by One-Way ANOVA followed by Dunnett's Multiple Comparison Test, in comparison to glutamate lesion (L or Glu).
Viability of cultures was determined by the MTT assay using a plate-reader (570 nm). This assay allows the measurement of the mitochondrial dehydrogenase activity which reduces yellow MTT to dark blue formazan crystals. Since this reaction was catalyzed in living cells, this assay was used for the determination of cell viability. MTT solution was added to each well in a final concentration of 0.5 mg/ml. After 2 hours the MTT containing medium was aspired. Cells were lysed in 3% SDS and the formazan crystals were dissolved in isopropanol/HCl. Optical density was measured with a plate-reader at wavelength 570 nm. Cell survival rate was expressed as optical density (OD). Values were calculated as percent of control values (vehicle control).
15d-PGJ2 was tested in a glutamate excitotoxicity model, a model of ALS. […]

[2] = test system: primary rat cortical neurons; experiment: Glutamate excitotoxicity model, MTT cell viability, primary rat cortical neurons; assay type: cell-based; settings: 24 hours, 0.01-10 μM, FIG. 7B
Experimental: as §1
(§2) Primary cortical neurons were prepared from time mated Sprague Dawley rats. Animals were sacrificed and embryos were dissected in Calcium and Magnesium free Hanks Balanced Salt Solution (CMF-HBSS) containing 15 mM HEPES and 10 mM NaHCO3, pH 7.2. Embryos were decapitated, skin and skull gently removed and cortical hemispheres were separated. […] Cells were counted in a hemacytometer and 4×10^4 cells per well were seeded on poly-D-lysine pre-coated 96-well plates. […]
Viability of cultures was determined by the MTT assay using a plate-reader (570 nm). […] Optical density was measured with a plate-reader at wavelength 570 nm. Cell survival rate was expressed as optical density (OD). Values were calculated as percent of control values (vehicle control). […]

[3] = test system: TDP43 stress granule formation of U2OS cells expressing GFP-labeled human TDP43; experiment: TDP43 stress granule assay (arsenite challenge, fluorescence imaging); assay type: cell-based; settings: Example 2, FIG. 4; 0.01, 0.1, 1 and 10 μM, 24 h pre-incubation, sodium arsenite 250 μM 120 min; Student's t Test vs arsenite control
[4] = test system: M3 network genes; experiment: Validation of M3 network activation by RNA sequencing; assay type: cell-based; settings: 1 μM, primary rat cortical neurons, no glutamate lesion, FIG. 5
Experimental: Bioinformatics predictions of M3 network activation from isoflupredone was validated in naïve neuronal cells (primary rat cortical neurons).
In parallel, 5 different test items and 2 reference items at 1 concentration each were applied to primary rat cortical neurons from […] of Sprague Dawley rats. The compounds were incubated for 8 days. […] Cell viability was determined by MTT and RNA was isolated. A number of ≧3 technical replicates were used.
Test item 1: isoflupredone (1 micromolar)
as §2
Messenger RNA was extracted from the cells and sequencing libraries were prepared using the TruSeq kit and poly-A selection. The resulting libraries were sequenced at a depth of 30 million reads per sample using single-ended 75 bp reads.

SMILES | effect on glutamate induced neurotoxicity (cell viability, MTT) [1] | effect on glutamate induced neurotoxicity (cell viability, MTT) [2] | aggregation of TDP43 compared to the negative control (mean number of fluorescent aggregates per cell) [3] | activation of M3 network genes (pattern of activation) [4]
CCCCC/C=C\C=C1\C(=O)C=CC1C/C=C\CCCC(=O)O (centres unmarked) [15d-PGJ2, 15-Deoxy-Δ12,14-prostaglandin J2] | neuroprotective effect | neuroprotective effect |  | 
C[C@]12C=CC(=O)C=C1CC[C@H]1[C@@H]3CC[C@](O)(C(=O)CO)[C@@]3(C)C[C@H](O)[C@@]12F [isoflupredone, (11β)-9-Fluoro-11,17,21-trihydroxypregna-1,4-diene-3,20-dione] |  |  | statistically significant decrease | largely up-regulation
CC(=O)[C@H]1CC[C@H]2[C@@H]3C[C@H](C)C4=CC(=O)CC[C@]4(C)[C@H]3[C@@H](O)C[C@]12C [medrysone] |  |  | did not show a statistically significant effect | 
